Test results taken from patent US20100184673A1, “USE OF PARATHYROID HORMONE ( 1-34 ) AS ANTI-HIV AGENT” (priority 2007, published 2010).

Experiments:
HIV-1IIIB = experiment: HIV-1 antiviral assay (CPE reduction) in CEM-SS cells, MTS readout; conditions: for antiviral activity of positive control compounds (in words): assay validity statement; for % CPE reduction in HIV-1 infected CEM-SS cells: peptide 10 micrograms per ml, 6 days post-infection, MTS
Pseudomonas aeruginosa = type: cell-based; conditions: 5 micrograms per ml
A549 cells [1] = experiment: Apoptosis prevention assay (C2 ceramide, Annexin-5); type: cell-based, Human; conditions: 30 min pretreatment, peptide 10 micrograms per ml
Source text: Human A549 cells (carcinomic human alveolar basal epithelial cells) were utilized in the experiments employing the Annexin-5 apoptosis assay. Annexin-5 is a member of a highly conserved protein family that binds acidic phospholipids in a calcium-dependent manner. […] Phosphatidylserine is translocated from the inner side of the plasma membrane to the outer layer when cells undergo death by apoptosis or cell necrosis and serves as a signal by which cell destined for death are recognized by phagocytes. A549 cells were pretreated for 30 min with test peptide—10 micrograms per ml—followed by the exposure to C2 ceramide. Ceramide mediates cell apoptosis through the activation of the mitogen activating protein kinase (MAPK) and the stress activated kinase (JNK/SAPK). C2 ceramide is a synthetic, membrane soluble analog of ceramide.

HCMV strain AD169 = experiment: HCMV plaque reduction assay in MRC-5 cells; conditions: for % plaque reduction: HCMV in MRC-5 cells, peptide 10 micrograms per ml, 7-10 days
RAW 264.7 cells = experiment: Phagocytosis assay (Fluorescein-labeled Escherichia coli); conditions: peptide 10 micrograms per ml, flow cytometry
[2] = test system: macrophages prepared from PBMC; experiment: TNF alpha production assay (LPS-stimulated macrophages, ELISA); type: cell-based, Human; conditions: peptide 10 micrograms per ml, lipopolysaccharide 200 ng/ml, overnight
Description: Human Peripheral Blood Mononuclear Cells (PBMC) were obtained from normal human donors. The macrophages were prepared by adherence of PBMC to the plastic wells of the plates. […] Not stimulated macrophages served as negative background control.
After overnight incubation, supernatants from the control and LPS-stimulated cultures were harvested and assayed for TNF alpha production employing a TNF alpha specific ELISA.

[3] = test system: Human Peripheral Blood Mononuclear Cells (PBMC); experiment: B cell proliferation assay (SAC plus Interleukin-2, 3H-thymidine); type: cell-based; conditions: peptide 10 micrograms per ml
Description: Human Peripheral Blood Mononuclear Cells (PBMC) were obtained from normal human donors. The B cell proliferation was induced by stimulation of the cells with the B cell mitogen Staphylococcus aureus Cowans I (SAC) plus Interleukin-2, either in the absence (positive proliferation control), or in the presence of test peptide—10 micrograms per ml—to examine their effects on the B cell response. 10^5/well PBMC were plated in 96-well microtiter plates and assayed in duplicate with the peptide. Cell cultures were incubated at 37° C. for 3 days in a 5% CO2 incubator and were thereafter pulsed with 1microCi/well ^3H-thymidine for additional 12 hours of culture. At the end of incubation time, the plates were harvested and the cells counted by liquid scintillation for the incorporation of ^3H-thymidine as a measure of B cell proliferation.

A549 cells [4] = experiment: Apoptosis induction assay (Annexin-5); type: cell-based, Human; conditions: 24 hours, peptide 10 micrograms per ml
Source text: Human A549 cells (carcinomic human alveolar basal epithelial cells) were utilized in the experiments employing the Annexin-5 apoptosis assay. Annexin-5 is a member of a highly conserved protein family that binds acidic phospholipids in a calcium-dependent manner. […] Phosphatidylserine is translocated from the inner side of the plasma membrane to the outer layer when cells undergo death by apoptosis or cell necrosis and serves as a signal by which cell destined for death are recognized by phagocytes. Test peptide—10 micrograms per ml—were exposed for 24 hours to the A549 cells before they were analyzed for signs of apoptosis.

in vitro [5] = conditions: human, CEM-SS cells
[6] = test system: Primary Human endothelial cells (HUVEC); experiment: Endothelial cell migration assay; type: cell-based; conditions: peptide 10 micrograms per ml, 22 hours
HUVEC = experiment: Endothelial tube formation assay; type: cell-based, Human; conditions: peptide 10 micrograms per ml, 20 hours
Source text: […] control wes vehicle only. […] Raw data were expressed as average tubule lenghs in pixels±standard deviation.

A549 cells [7] = experiment: Propidium iodide cell cycle assay; type: cell-based, Human; conditions: 24 hours, peptide 10 micrograms per ml, FACS
Source text: Human A549 cells (carcinomic human alveolar basal epithelial cells) were utilized in the experiments employing the Propidium iodide cell cycle assay. The eukaryotic cell cycle is a series of events that take place in a cell leading to its replication. The regulation of the cell cycle involves steps crucial to the cell, including detecting and repairing genetic damage, and provision of various checks to prevent uncontrolled cell division. The molecular events that control the cell cycle are ordered and directional; that is, each process occurs in a sequential fashion.
Propidium iodide is an intercalating agent and a fluorescent molecule that can be used to stain DNA. Cells were incubated for 24 hours with test peptide—10 micrograms per ml—or left untreated. After that cells were trypsinized, suspended in medium+10% FCS, centrifuged (1000 rpm, 5 min), and the cell pellet resuspended in PBS (1 ml). The cells were pipetted into 2.5 ml absolute EtOH (final concentration approx. 70%) and incubated on ice for 15 min. Thereafter, cells were pelleted at 1500 rpm for 5 min and resuspended in Propidium iodide solution in PBS. After incubation for 40 min at 37° C., cells were analyzed in the FACS.

[8] = test system: Human Peripheral Blood Mononuclear Cells (PBMC); experiment: T cell proliferation assay (PHA, 3H-thymidine); type: cell-based; conditions: peptide 10 micrograms per ml
Description: Human Peripheral Blood Mononuclear Cells (PBMC) were obtained from normal human donors. The T cell proliferation was induced by stimulation of the cells with the T cell mitogen phytohemagglutinin (PHA), either in the absence (positive proliferation control), or in the presence of test peptide—10 micrograms per ml—to examine their effects on the T cell proliferating response. 10^5/well PBMC were plated in 96-well microtiter plates and assayed in duplicate with the peptide. Cell cultures were incubated at 37° C. for 3 days in a 5% CO2 incubator and were thereafter pulsed with 1microCi/well ^3H-thymidine for additional 12 hours of culture. At the end of incubation time, the plates were harvested and the cells counted by liquid scintillation for the incorporation of ^3H-thymidine as a measure of T cell proliferation.

Streptococcus pneumoniae = type: cell-based; conditions: 5 micrograms per ml
MRSA = conditions: 5 micrograms per ml
[9] = Cell viability of HepG2-2.2.15 cells (dye uptake assay); type: cell-based; conditions: human, peptide 10 micrograms per ml
Description: (§1) HepG2-2.2.15 cells were plated in 96-well microtiter plates. After 16-24 hours the confluent monolayer of HepG2-2.2.15 cells was washed and the medium was replaced with complete medium containing test peptide—10 micrograms per ml—in duplicate. Lamivudine (3TC) was used as the positive control, while media alone was added to the cells as a negative control (virus control). Three days later the culture medium was replaced with fresh medium containing the peptide. Six days following the initial administration of the peptide, the cell culture supernatants was collected, treated with pronase and DNAse and then used in a real-time quantitative TaqMan PCR assay. The PCR-amplified HBV DNA was detected in real-time by monitoring increases in fluorescence signals that result from the exonucleolytic degradation of a quenched fluorescence probe molecule that hybridizes to the mplified HBV DNA. For each PCR amplification, a standard curve was simultaneously generated using dilutions of purified HBV DNA. Antiviral activity was calculated from the reduction in HBV DNA levels (% virus control). A novel dye uptake assay was then employed to measure cell viability, which is used to calculate toxicity (% cell control).

spleen cells = experiment: Th1/Th2 cytokine profiling assay (Ovalbumin restimulated spleen cells, CBA kit); type: cell-based, Balb/c mice; conditions: peptide 10 micrograms per ml; Ovalbumin restimulation; 72 hours
Source text: The Balb/c mice (originated in 1923, it is a popular strain and is used in many different research disciplines. Also classified as an inbred from the production of 20 or more successive brother-sister matings, the Balb/c mouse is albino and small in size) were immunized on Days 1, 15, and 29 with Ovalbumin (Ovalbumin is the main protein found in egg white, commonly used to stimulate an immunological reaction in test animals) in PBS (5 micrograms/injection). On day 50, spleens of the mice were harvested (3 weeks after last boost with Ovalbumin). […] Thereafter, additional Ovalbumin was added to the cells at 10 micrograms/ml for in vitro restimulation of the cells. 72 hours later, cell supernatants were harvested and assayed using the Becton Dickinson Mouse Th1/Th2 Cytokine CBA Kit. This kit can be used to measure Interleukin-2 (IL-2), Interleukin-4 (IL-4), Interleukin-5 (IL-5), Interferon-γ (IFN-γ), and Tumor Necrosis Factor-α (TNF-α) protein levels in a single sample. The kit performance has been optimized for analysis of physiologically relevant concentrations (pg/ml levels) of specific cytokine proteins in tissue culture supernatants and serum samples.

in vitro [10] = type: cell-based; conditions: human, MRC-5 cells
[11] = test system: hepatitis B virus (HBV) ayw strain; experiment: HBV replication assay in HepG2-2.2.15 cells (TaqMan PCR of secreted HBV DNA); type: cell-based; conditions: peptide 10 micrograms per ml; six days; HBV DNA in supernatant
Source text: HepG2-2.2.15 is a stable cell line containing the hepatitis B virus (HBV) ayw strain genome (ATCC Cat. No. CRL-11997). Antiviral compounds blocking any late step of viral replication such as transcription, translation, pregenome encapsidation, reverse transcription, particle assembly and release can be identified and characterized using this cell line. In this assay, an active compound will reduce the production of secreted HBV from cells, measured by utilizing real time quantitative PCR (TaqMan) assay to directly and accurately measure HBV DNA copies.
HepG2-2.2.15 cells were plated in 96-well microtiter plates. After 16-24 hours the confluent monolayer of HepG2-2.2.15 cells was washed and the medium was replaced with complete medium containing test peptide—10 micrograms per ml—in duplicate. […] Six days following the initial administration of the peptide, the cell culture supernatants was collected, treated with pronase and DNAse and then used in a real-time quantitative TaqMan PCR assay. The PCR-amplified HBV DNA was detected in real-time by monitoring increases in fluorescence signals that result from the exonucleolytic degradation of a quenched fluorescence probe molecule that hybridizes to the mplified HBV DNA. […] Antiviral activity was calculated from the reduction in HBV DNA levels (% virus control). […]

HepG2-2.2.15 cells = experiment: Cell viability of HepG2-2.2.15 cells (dye uptake assay); type: cell-based; conditions: peptide 10 micrograms per ml
Description: as §1

MRC-5 cells = experiment: in vitro; type: cell-based; conditions: human, 6 days

Structure (SMILES): Cc1cn([C@H]2C[C@H](N=[N+]=[N-])[C@@H](CO)O2)c(=O)[nH]c1=O [AZT, zidovudine]
- antiviral activity of positive control compounds (in words) (HIV-1IIIB): expected levels of antiviral activity
- % CPE reduction in HIV-1 infected CEM-SS cells (HIV-1IIIB): 99%

Structure (SMILES): CC(C)(C)NC(=O)[C@@H]1CN(Cc2cccnc2)CCN1C[C@@H](O)C[C@@H](Cc1ccccc1)C(=O)N[C@H]1c2ccccc2C[C@H]1O [Indinavir, indinavir]
- antiviral activity of positive control compounds (in words) (HIV-1IIIB): expected levels of antiviral activity
- % CPE reduction in HIV-1 infected CEM-SS cells (HIV-1IIIB): 100%

Structure (SMILES): CC[C@H](C)[C@H](NC(=O)[C@H](CCC(=O)O)NC(=O)[C@H](CO)NC(=O)[C@@H](NC(=O)[C@@H](N)CO)C(C)C)C(=O)N[C@@H](CCC(N)=O)C(=O)N[C@@H](CC(C)C)C(=O)N[C@@H](CCSC)C(=O)N[C@@H](Cc1cnc[nH]1)C(=O)N[C@@H](CC(N)=O)C(=O)N[C@@H](CC(C)C)C(=O)NCC(=O)N[C@@H](CCCCN)C(=O)N[C@@H](Cc1cnc[nH]1)C(=O)N[C@@H](CC(C)C)C(=O)N[C@@H](CC(N)=O)C(=O)N[C@@H](CO)C(=O)N[C@@H](CCSC)C(=O)N[C@@H](CCC(=O)O)C(=O)N[C@@H](CCCN=C(N)N)C(=O)N[C@H](C(=O)N[C@@H](CCC(=O)O)C(=O)N[C@@H](Cc1c[nH]c2ccccc12)C(=O)N[C@@H](CC(C)C)C(=O)N[C@@H](CCCN=C(N)N)C(=O)N[C@@H](CCCCN)C(=O)N[C@@H](CCCCN)C(=O)N[C@@H](CC(C)C)C(=O)N[C@@H](CCC(N)=O)C(=O)N[C@@H](CC(=O)O)C(=O)N[C@H](C(=O)N[C@@H](Cc1cnc[nH]1)C(=O)N[C@@H](CC(N)=O)C(=O)N[C@@H](Cc1ccccc1)C(=O)O)C(C)C)C(C)C [pTH (1-34)]
- % inhibition (Pseudomonas aeruginosa): 0.0%
- % prevention of ceramide induced apoptosis (A549 cells [1]): 23.85%
- % plaque reduction (HCMV strain AD169): 0.0%
- % of control phagocytosis (RAW 264.7 cells): 102.9%
- % of LPS induction [2]: 117.1%
- % of SAC/IL2 induced control [3]: 106.0%
- % of induction (A549 cells [4]): 1.1%
- viability at 10 micrograms per ml (in vitro [5]): 99.4%
- % inhibition of migration [6]: −4.0%
- % inhibition of tube formation (HUVEC): 28.0%
- Cell cycle analysis G0/G1 (A549 cells [7]): 59.1
- Cell cycle analysis G2/M (A549 cells [7]): 7.5
- Cell cycle analysis S (A549 cells [7]): 34.4
- % of PHA induced control [8]: 110.2%
- % inhibition (Streptococcus pneumoniae): 0.0%
- % inhibition (MRSA): 0.0%
- viability at 144 h, 10 micrograms per ml [9]: 100%
- IFNγ spleen cells; TH1 response (% of control) (spleen cells): 68.6 % of control
- IL-2 spleen cells (% of control) (spleen cells): 180.4 % of control
- IL-4 spleen cells; TH2 response (% of control) (spleen cells): 135.2 % of control
- IL-5 spleen cells; TH2 response (% of control) (spleen cells): 85.9 % of control
- TNF-a spleen cells; TH1 response (% of control) (spleen cells): 114.1 % of control
- viability at 144 h (in vitro [10]): 100%
- % CPE reduction in HIV-1 infected CEM-SS cells (HIV-1IIIB): 18.1%
- % inhibition of HBV replication in HEP G2 cells [11]: 0.0%

Structure (SMILES): Nc1ccn([C@@H]2CS[C@H](CO)O2)c(=O)n1 [3TC, Lamivudine, reference compound]
- % Cell viability (HepG2-2.2.15 cells): 95.8%

Structure (SMILES): Nc1nc(O)c2ncn(COC(CO)CO)c2n1 [Ganciclovir]
- % plaque reduction (HCMV strain AD169): 100%
- antiviral activity of positive control compound (in words) (HCMV strain AD169; assay validity statement): expected levels of antiviral activity
- % Cell viability (MRC-5 cells): 100%
